Experimental data: the supplement of paper PMC10307832

Legend:
Test in all cases: relative viability (nuclei count vs DMSO), 5 days (fraction); higher = more cells survive
[1] = compound: O=C(O)c1ccc2c(c1)nc(Nc1cccc(Cl)c1)c1ccncc12 [Silmitasertib] + Cc1nc(NC(=O)N2CCC[C@H]2C(N)=O)sc1-c1ccnc(C(C)(C)C(F)(F)F)c1 [Alpelisib] (partner 2 µM)
How it was run: (§1)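 Each reported value is a median over duplicate plates. It expresses relative viability: treated-well nuclei count divided by vehicle-well nuclei count. Lung cancer cell lines in 1536-well plates were dosed by pin tool a day after seeding, alone with one drug or with a fixed anchor-drug dose plus five library-drug doses (not always all listed) in √10 steps, and nuclei were counted after 5 days.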

[2] = compound: O=C(O)c1ccc2c(c1)nc(Nc1cccc(Cl)c1)c1ccncc12 [Silmitasertib] + CS(=O)(=O)CCNCc1ccc(-c2ccc3ncnc(Nc4ccc(OCc5cccc(F)c5)c(Cl)c4)c3c2)o1 [Lapatinib] (partner 2 µM)
How it was run: as §1

Silmitasertib + AZD7762 = compound: O=C(O)c1ccc2c(c1)nc(Nc1cccc(Cl)c1)c1ccncc12 [Silmitasertib] + NC(=O)Nc1cc(-c2cccc(F)c2)sc1C(=O)N[C@H]1CCCNC1 [AZD7762] (partner 0.2 µM)
How it was run: as §1

[3] = compound: O=C(O)c1ccc2c(c1)nc(Nc1cccc(Cl)c1)c1ccncc12 [Silmitasertib] + Cc1nc(Nc2ncc(C(=O)Nc3c(C)cccc3Cl)s2)cc(N2CCN(CCO)CC2)n1 [Dasatinib] (partner 0.075 µM)
How it was run: as §1

[4] = compound: O=C(O)c1ccc2c(c1)nc(Nc1cccc(Cl)c1)c1ccncc12 [Silmitasertib] + N=C(N)NC(=N)NCCc1ccccc1 [Phenformin] (partner 250 µM)
How it was run: as §1

Cell Line RERF-LC-KJ has a relative viability ([1]; first compound 0.04 µM) of 0.929, a relative viability ([1]; first compound 0.4 µM) of 0.797 and a relative viability ([1]; first compound 1.265 µM) of 0.66. The relative viability ([1]; first compound 4 µM) was 0.51, the relative viability ([2]; first compound 0.04 µM) was 0.859 and the relative viability ([2]; first compound 0.4 µM) was 0.819. It also gave a relative viability ([2]; first compound 1.265 µM) of 0.767, a relative viability ([2]; first compound 4 µM) of 0.516 and a relative viability (Silmitasertib + AZD7762; first compound 0.04 µM) of 1.07. It also gave a relative viability (Silmitasertib + AZD7762; first compound 0.4 µM) of 0.785, a relative viability (Silmitasertib + AZD7762; first compound 1.265 µM) of 0.763 and a relative viability (Silmitasertib + AZD7762; first compound 4 µM) of 0.344. The relative viability ([3]; first compound 0.04 µM) was 0.879, the relative viability ([3]; first compound 0.4 µM) was 0.735 and the relative viability ([3]; first compound 1.265 µM) was 0.393. The relative viability ([3]; first compound 4 µM) was 0.435, the relative viability ([4]; first compound 0.04 µM) was 0.407 and the relative viability ([4]; first compound 0.4 µM) was 0.378. The relative viability ([4]; first compound 1.265 µM) was 0.31 and the relative viability ([4]; first compound 4 µM) was 0.268.
